SMILES strings stand for the structures.

T1 sequence (P53350 2-369 T210D): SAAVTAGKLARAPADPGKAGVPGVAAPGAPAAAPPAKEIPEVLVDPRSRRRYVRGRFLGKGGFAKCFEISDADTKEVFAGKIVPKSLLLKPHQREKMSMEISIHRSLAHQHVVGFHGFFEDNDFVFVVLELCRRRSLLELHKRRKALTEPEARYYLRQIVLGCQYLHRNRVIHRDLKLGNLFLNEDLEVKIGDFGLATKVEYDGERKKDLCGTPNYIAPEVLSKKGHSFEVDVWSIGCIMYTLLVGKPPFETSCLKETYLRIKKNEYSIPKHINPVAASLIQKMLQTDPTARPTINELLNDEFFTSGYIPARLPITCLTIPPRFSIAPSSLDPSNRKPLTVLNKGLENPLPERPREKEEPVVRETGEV

The test addresses T1, recombinant human PLK1[2-369]T210D (Homo sapiens, UniProt P53350, T210D).
T1 construct: recombinant human PLK1[2-369]T210D; Smt (SUMO) fusion partner (N, cleaved yes); host or cells: E. coli
The test is described as follows: PLK1 DELFIA Kinase Assay. It is filed as biochemical. The settings on record: 50 μM ATP, 2 μM peptide substrate, 0.3 nM enzyme, 90 minutes at room temperature. The method, then:
Recombinant human PLK1 was expressed in E. coli as an N-terminal Smt fusion protein using a proprietary vector (pSGX4) by Structural Genomics (SGX). The fusion partner was removed through cleavage with Ulp1 after an initial purification using a Ni2+ affinity column.
PLK1 DELFIA® Kinase Assay
The enzymatic reaction mixture, with or without PLK inhibitors, was incubated 90 minutes at room temperature before termination with 50 μL of STOP buffer containing 1% BSA, 0.05% Tween20, 100 mM EDTA. 50 μL of the stopped enzyme reaction mixture was transferred to a Neutravidin-coated 384-well plate (Pierce) and incubated at room temperature for 60 minutes. […] The wells were washed and then the bound europium was liberated using 50 μL of Enhancement Solution (Perkin Elmer). Quantification of europium was done using a Pherastar (BMG Labtech)
As usually defined, the IC50 is the concentration that gives 50% inhibition. Regarding `Cc1ncc(CCN2CCC(N(C)C)CC2)cc1Nc1ncc2c(n1)-c1ccc(C(F)(F)F)cc1NC(=S)C2` [Compound I-52, 2-[(5-{2-[4-(dimethylamino)piperidin-1-yl]ethyl}-2-methylpyridin-3-yl)amino]-9-(trifluoromethyl)-5,7-dihydro-6H-pyrimido[5,4-d][1]benzazepine-6-thione], the IC50 was < 5 nM. Take `Cc1ncc(CCN2CCCCC2)cc1Nc1ncc2c(n1)-c1ccc(Cl)cc1NC(=S)C2` [Compound I-54, 9-chloro-2-{[2-methyl-5-(2-piperidin-1-ylethyl)pyridin-3-yl]amino}-5,7-dihydro-6H-pyrimido[5,4-d][1]benzazepine-6-thione]: the IC50 is < 5 nM. As to `Cc1ncc(CCCO)cc1Nc1ncc2c(n1)-c1ccc(C(F)(F)F)cc1NC(=S)C2` [Compound I-55, 2-{[5-(3-hydroxypropyl)-2-methylpyridin-3-yl]amino}-9-(trifluoromethyl)-5,7-dihydro-6H-pyrimido[5,4-d][1]benzazepine-6-thione], the IC50 was < 5 nM.

With `Cc1nc(OC2CCN(C)CC2)ccc1Nc1ncc2c(n1)-c1ccc(Cl)cc1NC(=S)C2` [Compound I-56, 9-chloro-2-({2-methyl-6-[(1-methylpiperidin-4-yl)oxy]pyridin-3-yl}amino)-5,7-dihydro-6H-pyrimido[5,4-d][1]benzazepine-6-thione], the IC50 was 5 to 25 nM. Turning to `Cc1nc(NC(C)C)ccc1Nc1ncc2c(n1)-c1ccc(C(F)(F)F)cc1NC(=S)C2` [Compound I-57, 2-{[6-(isopropylamino)-2-methylpyridin-3-yl]amino}-9-(trifluoromethyl)-5,7-dihydro-6H-pyrimido[5,4-d][1]benzazepine-6-thione], the IC50 is < 5 nM. Regarding `CCN1CCN(c2cncc(Nc3ncc4c(n3)-c3ccc(Cl)cc3NC(=S)C4)c2)C[C@H]1C` [Compound I-58, 9-chloro-2-({5-[(3R)-4-ethyl-3-methylpiperazin-1-yl]pyridin-3-yl}amino)-5,7-dihydro-6H-pyrimido[5,4-d][1]benzazepine-6-thione], the IC50 is < 5 nM.

`Cc1ncc(CCN2CCC(N(C)C)CC2)cc1Nc1ncc2c(n1)-c1ccc(Cl)cc1NC(=S)C2` [Compound I-59, 9-chloro-2-[(5-{2-[4-(dimethylamino)piperidin-1-yl]ethyl}-2-methylpyridin-3-yl)amino]-5,7-dihydro-6H-pyrimido[5,4-d][1]benzazepine-6-thione]: the IC50 is < 5 nM.

For `Cc1ccc2c(c1)NC(=S)Cc1cnc(Nc3cc(CCCN(C)C)cnc3C)nc1-2` [Compound I-60, 2-({5-[3-(dimethylamino)propyl]-2-methylpyridin-3-yl}amino)-9-methyl-5,7-dihydro-6H-pyrimido[5,4-d][1]benzazepine-6-thione], the IC50 was < 5 nM. On to `CN1CCN(c2ccc(Nc3ncc4c(n3)-c3ccc(C(F)(F)F)cc3NC(=S)C4)cn2)CC1` [Compound I-61, 2-{[6-(4-methylpiperazin-1-yl)pyridin-3-yl]amino}-9-(trifluoromethyl)-5,7-dihydro-6H-pyrimido[5,4-d][1]benzazepine-6-thione], for which the IC50 was < 5 nM.

Take `CNCCCc1cnc(C)c(Nc2ncc3c(n2)-c2ccc(C(F)(F)F)cc2NC(=S)C3)c1` [Compound I-62, 2-({2-methyl-5-[3-(methylamino)propyl]pyridin-3-yl}amino)-9-(trifluoromethyl)-5,7-dihydro-6H-pyrimido[5,4-d][1]benzazepine-6-thione]: the IC50 was < 5 nM. To `Cc1ncc(C2CCN(C)CC2(C)C)cc1Nc1ncc2c(n1)-c1ccc(Cl)cc1NC(=S)C2` (stereo not shown) [Compound I-63, 9-chloro-2-{[2-methyl-5-(1,3,3-trimethylpiperidin-4-yl)pyridin-3-yl]amino}-5,7-dihydro-6H-pyrimido[5,4-d][1]benzazepine-6-thione] belongs < 5 nM; to `Cc1nc(NCCN(C)C)ccc1Nc1ncc2c(n1)-c1ccc(C(F)(F)F)cc1NC(=S)C2` [Compound I-64, 2-[(6-{[2-(dimethylamino)ethyl]amino}-2-methylpyridin-3-yl)amino]-9-(trifluoromethyl)-5,7-dihydro-6H-pyrimido[5,4-d][1]benzazepine-6-thione], < 5 nM. With `Cc1nc(NCC2CCN(C)CC2)ccc1Nc1ncc2c(n1)-c1ccc(C(F)(F)F)cc1NC(=S)C2` [Compound I-65], the IC50 was < 5 nM. For `CCN1CCN(c2cnc(C)c(Nc3ncc4c(n3)-c3ccc(Cl)cc3NC(=S)C4)c2)C[C@@H]1C` [Compound I-66, 9-chloro-2-({5-[(3S)-4-ethyl-3-methylpiperazin-1-yl]-2-methylpyridin-3-yl}amino)-5,7-dihydro-6H-pyrimido[5,4-d][1]benzazepine-6-thione], the concentration for half-maximal inhibition (IC50) is < 5 nM. Regarding `Cc1nc(NC2CCNCC2)ccc1Nc1ncc2c(n1)-c1ccc(C(F)(F)F)cc1NC(=S)C2` [Compound I-67, 2-{[2-methyl-6-(piperidin-4-ylamino)pyridin-3-yl]amino}-9-(trifluoromethyl)-5,7-dihydro-6H-pyrimido[5,4-d][1]benzazepine-6-thione], the IC50 was < 5 nM. `Nc1ccc(Nc2ncc3c(n2)-c2ccc(Cl)cc2NC(=S)C3)cn1` [Compound I-68, 2-[(6-aminopyridin-3-yl)amino]-9-chloro-5,7-dihydro-6H-pyrimido[5,4-d][1]benzazepine-6-thione]: the IC50 is < 5 nM.

Consider `Cc1nc(N2CCC(N(C)C)CC2)ccc1Nc1ncc2c(n1)-c1ccc(Cl)cc1NC(=S)C2` [Compound I-69, 9-chloro-2-({6-[4-(dimethylamino)piperidin-1-yl]-2-methylpyridin-3-yl}amino)-5,7-dihydro-6H-pyrimido[5,4-d][1]benzazepine-6-thione], for which the IC50 is < 5 nM. Turning to `CN(C)CCc1cnc(C(F)(F)F)c(Nc2ncc3c(n2)-c2ccc(Cl)cc2NC(=S)C3)c1` [Compound I-70, 9-chloro-2-{[5-[2-(dimethylamino)ethyl]-2-(trifluoromethyl)pyridin-3-yl]amino}-5,7-dihydro-6H-pyrimido[5,4-d][1]benzazepine-6-thione], the IC50 fell in the range of 5 to 25 nM.

Turning to `CN(C)CCCN(C)c1ccc(Nc2ncc3c(n2)-c2ccc(Cl)cc2NC(=S)C3)cn1` [Compound I-71, 9-chloro-2-({6-[[3-(dimethylamino)propyl](methyl)amino]pyridin-3-yl}amino)-5,7-dihydro-6H-pyrimido[5,4-d][1]benzazepine-6-thione], the IC50 lay in the range of 5 to 25 nM. Consider `Cc1ncc(CCN2CCOCC2)cc1Nc1ncc2c(n1)-c1ccc(Cl)cc1NC(=S)C2` [Compound I-72, 9-chloro-2-{[2-methyl-5-(2-morpholin-4-ylethyl)pyridin-3-yl]amino}-5,7-dihydro-6H-pyrimido[5,4-d][1]benzazepine-6-thione], for which the IC50 was < 5 nM. `Cc1nc(N2CCN(C)CC2)ccc1Nc1ncc2c(n1)-c1ccc(Cl)cc1NC(=S)C2` [Compound I-73, 9-chloro-2-{[2-methyl-6-(4-methylpiperazin-1-yl)pyridin-3-yl]amino}-5,7-dihydro-6H-pyrimido[5,4-d][1]benzazepine-6-thione]: the IC50 was < 5 nM. `Cc1cc(NC2CCN(C)CC2)ncc1Nc1ncc2c(n1)-c1ccc(C(F)(F)F)cc1NC(=S)C2` [Compound I-74, 2-({4-methyl-6-[(1-methylpiperidin-4-yl)amino]pyridin-3-yl}amino)-9-(trifluoromethyl)-5,7-dihydro-6H-pyrimido[5,4-d][1]benzazepine-6-thione]: the IC50 was < 5 nM. Take `Cc1nc(N(C)C2CCN(C)CC2)ccc1Nc1ncc2c(n1)-c1ccc(C(F)(F)F)cc1NC(=S)C2` [Compound I-75, 2-({2-methyl-6-[methyl(1-methylpiperidin-4-yl)amino]pyridin-3-yl}amino)-9-(trifluoromethyl)-5,7-dihydro-6H-pyrimido[5,4-d][1]benzazepine-6-thione]: the IC50 is < 5 nM. On to `Cc1nc(NCCCN(C)C)ccc1Nc1ncc2c(n1)-c1ccc(Cl)cc1NC(=S)C2` [Compound I-76, 9-chloro-2-[(6-{[3-(dimethylamino)propyl]amino}-2-methylpyridin-3-yl)amino]-5,7-dihydro-6H-pyrimido[5,4-d][1]benzazepine-6-thione], for which the IC50 was < 5 nM. As to `Cc1nc(OC2CCN(C)CC2)ccc1Nc1ncc2c(n1)-c1ccc(C(F)(F)F)cc1NC(=S)C2` [Compound I-77, 2-({2-methyl-6-[(1-methylpiperidin-4-yl)oxy]pyridin-3-yl}amino)-9-(trifluoromethyl)-5,7-dihydro-6H-pyrimido[5,4-d][1]benzazepine-6-thione], the IC50 was < 5 nM. Take `S=C1Cc2cnc(Nc3cncc(CCN4CCOCC4)c3)nc2-c2ccc(Cl)cc2N1` [Compound I-78, 9-chloro-2-{[5-(2-morpholin-4-ylethyl)pyridin-3-yl]amino}-5,7-dihydro-6H-pyrimido[5,4-d][1]benzazepine-6-thione]: the IC50 was < 5 nM. Turning to `Cc1ncc(CCCN(C)C)cc1Nc1ncc2c(n1)-c1ccc(C#N)cc1NC(=S)C2` [Compound I-79, 2-({5-[3-(dimethylamino)propyl]-2-methylpyridin-3-yl}amino)-6-thioxo-6,7-dihydro-5H-pyrimido[5,4-d][1]benzazepine-9-carbonitrile], the IC50 was in the range of 5 to 25 nM. Regarding `Cc1nc(NC2CCN(C)CC2)ccc1Nc1ncc2c(n1)-c1ccc(C3CC3)cc1NC(=S)C2` [Compound I-80, 9-cyclopropyl-2-({2-methyl-6-[(1-methylpiperidin-4-yl)amino]pyridin-3-yl}amino)-5,7-dihydro-6H-pyrimido[5,4-d][1]benzazepine-6-thione], the IC50 is < 5 nM.

Values taken from patent publication US7998952B2, “Thiolactams and uses thereof” (Millennium Pharmaceuticals, Inc., priority 2008, dated 2011).
